In patent US7842808B2, “Anti-migraine spirocycles” (Bristol-Myers Squibb Company, priority 2002, dated 2010):

Tested on: CGRP-induced increase in laser Doppler facial blood flow
Experiment: Non-terminal laser Doppler facial blood flow model in non-human primate
Type: in vivo, common marmoset (Callithrix jacchus)
Conditions: iv, CGRP 10 μg/kg
Description: Overview. […] Non-human primates (e.g., marmosets) are the only animals known to have human-like CGRP receptor pharmacology conferred by the presence of the specific amino acid residue (Trp74) in their RAMP1 sequence which is responsible for the phenotype of the human receptor (Mallee et al. J Biol Chem 2002 277:14294). […] Peptide and small-molecule CGRP-receptor antagonists were used to validate the non-human primate model.
Animals. Adult male and female common marmosets (Callithrix jacchus) purchased from Harlan and weighing 350-550 g served as subjects. Other mammals endogenously expressing RAMP1 having Trp 74 or transgenic mammals with humanized RAMP1 having Trp 74 can also be employed in A compound described herein.
Anesthesia & Surgical Preparation. Animals are anesthetized by isoflurane inhalation in an induction chamber (4-5% rapid induction, maintained with 1-2.5%; Solomon et al., 1999). Anesthesia is maintained by delivering a constant supply of air:oxygen (50:50) and isoflurane via face mask, or by intubation and ventilation (with blood gas monitoring). Body temperature is maintained at 38±0.5° C. by placement on an automated temperature controlled surface with rectal probe. A small area of fur (approx. 1.5 cm square) is removed from one or both sides of the face by application of a depilatory cream and/or shaving. Surgical areas are clipped and prepared with betadine. An i.v. line is placed in any accessible vein for the administration of test compounds and CGRP-receptor agonist and, if needed, withdrawal of blood samples (max 2.5 ml, 10%) for blood gas monitoring and content analysis. A solution of 5% dextrose is administered i.v. in order to maintain blood sugar levels. Anesthesia depth is monitored by measuring blood pressure and heart rate using a non-invasive arm cuff method and a pulse oximeter, respectively. Guanethidine 5-10 mg/kg i.v., supplemented with 5 mg/kg i.v. as needed, may be given to stabilize the peak flux in facial blood flow seen with repeated stimulation-induced changes in blood flow (Escott et al., 1999; incorporated by reference herein). Microvascular blood flow is monitored by attaching a self adhesive laser Doppler flow probe to the facial skin.
Compound Administration Test compounds may be administered i.v. (0.01-5 ml/kg), i.m. (0.01-0.5 ml/kg), s.c. (0.01-5 ml/kg) or p.o. (0.1-10 ml/kg) (Diehl et al., 2001; incorporated by reference herein). CGRP-receptor agonists may be delivered i.v. (0.01-5 ml/kg), i.d. (10-100 μl/site) or s.c. (10-100 μl/site).

| SMILES | % Inhibition of CGRP-induced increase in laser Doppler facial blood flow (0.03 mg/kg) | % Inhibition of CGRP-induced increase in laser Doppler facial blood flow (0.1 mg/kg) |
| --- | --- | --- |
| Cc1cc(CC(NC(=O)N2CCC(N3Cc4ccccc4NC3=O)CC2)C(=O)N2CCC(N3CCCCC3)CC2)cc2cn[nH]c12 (racemic) [Example 16, (±)-4-(2-Oxo-1,4-dihydro-2H-quinazolin-3-yl)-piperidine-1-carboxylic acid[2-[1,4′]bipiperidinyl-1′-yl-1-(7-methyl-1H-indazol-5-ylmethyl)-2-oxo-ethyl]-amide] | Y (50%<Y≦75%) |  |
| Cc1cc(CC(CC(=O)N2CCC(N3Cc4ccccc4NC3=O)CC2)C(=O)N2CCC(N3CCCCC3)CC2)cc2cn[nH]c12 (racemic) [Example 69, (±)-1-[1,4′]Bipiperidinyl-1′-yl-2-(7-methyl-1H-indazol-5-ylmethyl)-4-[4-(2-oxo-1,4-dihydro-2H-quinazolin-3-yl)-piperidin-1-yl]-butane-1,4-dione] | Y (50%<Y≦75%) | Z (Z>75%) |
